Where two headings read alike, the source gives them in different places.
Experiments:
[1] = system: genotype 1b (Con-1) HCV replicon; assay: HCV replicon luciferase assay, genotype 1b (Con-1); assay type: cell-based; details: Hepatitis C virus, Huh-7, 72 h, genotype 1b HCV replicon, Huh-7 cells, Renilla luciferase, 3 days
Protocol: The cell lines used to evaluate compounds consist of a human hepatocyte derived cell line (Huh-7) that constitutively expresses a genotype 1b (Con-1) HCV replicon or a genotype 1b (Con-1) HCV replicon with an asparagine replacing the cysteine at amino acid 316, or a genotype 2a (JFH-1) replicon, containing a Renilla luciferase reporter gene. These cells were maintained in Dulbecco's modified Eagle medium (DMEM) containing 10% FBS, 100 U/mL penicillin/streptomycin and 1.0 mg/mL G418.
To evaluate compound efficacy, titrated compounds were transferred to sterile 384-well tissue culture treated plates, and the plates were seeded with HCV replicon cells (50 μL at a density of 2.4×10^3 cells/well) in DMEM containing 4% FBS (final DMSO concentration at 0.5%). After 3 days incubation at 37° C., cells were analyzed for Renilla Luciferase activity using the EnduRen substrate (Promega cat #E6485) according to the manufacturer's directions. Briefly, the EnduRen substrate was diluted in DMEM and then added to the plates to a final concentration of 7.5 μM. The plates were incubated for at least 1 h at 37° C. then read on a Viewlux Imager (PerkinElmer) using a luminescence program. The 50% effective concentration (EC50) was calculated using the four-parameter logistic formula noted above.

HCV replicon 1a = assay: HCV replicon luciferase assay, genotype 1a; assay type: cell-based; details: Hepatitis C virus
HCV = details: cited from earlier work

Compound	EC50 ([1]; read-out: EC50 1b (class)) [µM]	EC50 ([1]; read-out: EC50 (uM) 1b) [µM]	further results
CNC(=O)c1c(-c2ccc(F)cc2)oc2nc(NCC(F)(F)F)c(-c3cnc(OC)c(C(=O)NC4(C#N)CC4)c3)cc12 [Compound K8003]	< 0.1	–	–
CNC(=O)c1c(-c2ccc(F)cc2)oc2nc(OCC(F)(F)F)c(-c3cccc(C(=O)NC(C)(C)C#N)c3)cc12 [Compound K9001, 5-(3-((2-cyanopropan-2-yl)carbamoyl)phenyl)-2-(4-fluorophenyl)-N-methyl-6-(2,2,2-trifluoroethoxy)furo[2,3-b]pyridine-3-carboxamide]	–	–	EC50 (HCV replicon 1a; read-out: EC50 for 1a instead): 17.7 nM; EC50 (HCV replicon 1a; read-out: EC50 for 1a instead (class)): < 100 nM
CC[C@H](C)c1nc2oc(-c3ccc(F)cc3)c(C(=O)NC)c2cc1-c1cccc(C(=O)NC(C)(C)C#N)c1 [Compound K11001]	< 0.1	0.0133	–
CC[C@@H](C)c1nc2oc(-c3ccc(F)cc3)c(C(=O)NC)c2cc1-c1cccc(C(=O)NC(C)(C)C#N)c1 [Compound K11002]	< 0.1	0.0044	–
CNC(=O)c1c(-c2ccc(F)cc2)oc2cc(N(CCO)S(C)(=O)=O)c(C3CC3)cc12 [HCV-796]	–	–	hepatic toxicity (HCV; extended dosing of the combination regimens): hepatic toxicity observed during extended dosing of the combination regimens; HCV RNA levels in patients (HCV; patients, single agent or combined with interferon and ribavirin): reduce HCV RNA levels in patients
alpha-interferon and ribavirin	–	–	sustained efficacy, share of patients (HCV; patients): 40%

Reference: US9249152B2, “Cyano containing azabenzofuran compounds for the treatment of hepatitis C” (BRISTOL-MYERS SQUIBB COMPANY, priority 2014, dated 2016)
